target: T1, IKBKB (IKKβ) (Homo sapiens, UniProt O14920); experiment: Z'-LYTE IKKβ assay (Life Technologies); type: biochemical; details: not given
T1 construct: purchased Life Technologies (assay performed by the vendor)
T1 sequence (O14920 1-756): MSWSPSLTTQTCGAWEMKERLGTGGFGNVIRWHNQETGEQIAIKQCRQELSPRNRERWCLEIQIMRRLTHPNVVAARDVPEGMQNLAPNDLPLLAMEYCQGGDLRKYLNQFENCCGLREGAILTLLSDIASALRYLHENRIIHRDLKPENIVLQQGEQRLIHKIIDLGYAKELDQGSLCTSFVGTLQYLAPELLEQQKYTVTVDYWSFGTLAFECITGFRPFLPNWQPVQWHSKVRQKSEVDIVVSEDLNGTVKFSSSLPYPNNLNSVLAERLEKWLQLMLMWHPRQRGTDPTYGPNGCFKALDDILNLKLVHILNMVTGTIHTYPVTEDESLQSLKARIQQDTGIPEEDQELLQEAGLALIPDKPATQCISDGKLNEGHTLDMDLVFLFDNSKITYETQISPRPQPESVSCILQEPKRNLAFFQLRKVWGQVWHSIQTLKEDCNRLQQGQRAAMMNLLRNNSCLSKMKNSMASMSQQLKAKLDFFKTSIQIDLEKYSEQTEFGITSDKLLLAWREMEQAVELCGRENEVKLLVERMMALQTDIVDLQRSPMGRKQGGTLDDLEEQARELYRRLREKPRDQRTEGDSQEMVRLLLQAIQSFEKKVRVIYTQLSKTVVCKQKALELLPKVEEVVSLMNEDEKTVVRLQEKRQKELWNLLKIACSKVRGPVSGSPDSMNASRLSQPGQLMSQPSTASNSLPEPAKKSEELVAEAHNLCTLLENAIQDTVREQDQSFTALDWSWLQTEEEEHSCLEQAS
Description: IKKα and IKKβ inhibitory activity was determined using three different assays: a dissociation enhanced ligand fluorescent immunoassay (DELFIA) based on the protocol of HTScan™ IKKβ Kinase Assay (Cell Signaling Technology, USA); an Adapta IKKα assay (performed by Life Technologies); a Z′-LYTE™ IKKβ assay (performed by Life Technologies).
The reaction was performed in low volume NBS, black 384-well plates (Corning model 4514).
The test compounds were screened in 1% DMSO (final) in the well. For 10 point titrations, 3-fold serial dilutions were conducted from the starting concentration of 50 mM.
The 2× IKBKB (IKKβ)/Ser/Thr 05 mixture was prepared in 50 mM HEPES pH 7.5, 0.01% BRIJ-35, 10 mM MgCl2, 1 mM EGTA. The final 10 μL Kinase Reaction consisted of 0.62-4 ng IKBKB (IKKβ) and 2 μM Ser/Thr 05 in 50 mM HEPES pH 7.5, 0.01% BRIJ-35, 10 mM MgCl2, 1 mM EGTA.
5 μL of 2× Kinase reaction was incubated with 2.5 μL of ATP solution diluted to a 4× working concentration in Kinase Buffer (50 mM HEPES pH 7.5, 0.01% BRIJ-35, 10 mM MgCl2, 1 mM EGTA) in the presence of […] of 100× test compound in 100% DMSO and 2.4 μL of Kinase buffer.
The resulting kinase reaction was allowed to incubate for 1 hour at room temperature before 5 μL of a 1:64 dilution of Development Reagent B was added and the resulting Development Reaction was incubated for another hour at room temperature. Then the plate was read on a fluorescence plate reader and the data analysed.
A ratiometric method, which calculated the Emission Ratio of donor emission (i.e. coumarin) to acceptor emission (i.e. fluorescein) after excitation of the donor fluorophore at 400 nm, was used to quantitate reaction progress, as shown in the equation below.

In order of falling IC50:
1. Nc1n[nH]c2c(C#CC3CCCCC3)cc(-c3ccnc4[nH]ccc34)cc12 [Example 204, 7-(Cyclohexylethynyl)-5-(1H-pyrrolo[2,3-b]pyridin-4-yl)-1H-indazol-3-amine]  13500 nM
2. CC(C)(C)NCc1cc2c(-c3ccc4[nH]nc(N)c4c3)ccnc2[nH]1 [Example 248, 5-(2-((tert-Butylamino)methyl)-1H-pyrrolo[2,3-b]pyridine-4-yl)-1H-indazol-3-amine]  1430 nM
3. Nc1n[nH]c2ccc(-c3ccnc4[nH]c(C5CCCCN5)cc34)cc12 (stereo not drawn) [Example 250, 5-(2-(Piperidin-2-yl)-1H-pyrrolo[2,3-b]pyridine-4-yl)-1H-indazol-3-amine]  810 nM
4. Nc1n[nH]c2ccc(-c3ccnc4[nH]c(C(=O)N5CCCC5)cc34)cc12 [Example 234, (4-(3-Amino-1H-indazol-5-yl)-1H-pyrrolo[2,3-b]pyridin-2-yl)(pyrrolidin-1-yl)methanone]  790 nM
5. Nc1n[nH]c2ccc(-c3ccnc4[nH]c(CC5CCCCC5)cc34)cc12 [Example 221, 5-(2-(Cyclohexylmethyl)-1H-pyrrolo[2,3-b]pyridin-4-yl)-1H-indazol-3-amine]  655 nM
6. CC(C)(C)Cc1cc2c(-c3ccc4[nH]nc(N)c4c3)ccnc2[nH]1 [Example 220, 5-(2-Neopentyl-1H-pyrrolo[2,3-b]pyridin-4-yl)-1H-indazol-3-amine]  483 nM
7. CN1CCCN(Cc2cc3c(-c4ccc5[nH]nc(N)c5c4)ccnc3[nH]2)CC1 [Example 266, 5-(2-((4-Methyl-1,4-diazepan-1-yl)methyl)-1H-pyrrolo[2,3-b]pyridin-4-yl)-1H-indazol-3-amine]  380 nM
8. CC(C)(O)C#Cc1cc(-c2ccnc3[nH]ccc23)cc2c(N)n[nH]c12 [Example 206, 4-(3-Amino-5-(1H-pyrrolo[2,3-b]pyridin-4-yl)-1H-indazol-7-yl)-2-methylbut-3-yn-2-ol]  294 nM
9. Nc1n[nH]c2ccc(-c3ccnc4[nH]c(C5CCCCC5)cc34)cc12 [Example 219, 5-(2-Cyclohexyl-1H-pyrrolo[2,3-b]pyridin-4-yl)-1H-indazol-3-amine]  280 nM
10. Nc1n[nH]c2ccc(-c3ccnc4[nH]c(CCN5CCCCC5)cc34)cc12 [Example 267, 5-(2-(2-(Piperidin-1-yl)ethyl)-1H-pyrrolo[2,3-b]pyridine-4-yl)-1H-indazol-3-amine]  235 nM
11. Nc1n[nH]c2ccc(-c3ccnc4[nH]c(C5CCCCO5)cc34)cc12 (stereo not drawn) [Example 229, 5-(2-(Tetrahydro-2H-pyran-2-yl)-1H-pyrrolo[2,3-b]pyridin-4-yl)-1H-indazol-3-amine]  225 nM
12. Nc1n[nH]c2ccc(-c3ccnc4[nH]c(CCCN5CCOCC5)cc34)cc12 [Example 271, 5-(2-(3-Morpholinopropyl)-1H-pyrrolo[2,3-b]pyridin-4-yl)-1H-indazlo-3-amine]  111 nM
13. Nc1n[nH]c2ccc(-c3ccnc4[nH]c(CC5CCOCC5)cc34)cc12 [Example 230, 5-(2-((tetrahydro-2H-pyran-4-yl)methyl)-1H-pyrrolo[2,3-b]pyridin-4-yl)-1H-indazol-3-amine]  60 nM
14. Nc1n[nH]c2ccc(-c3ccnc4[nH]c(C5CCOCC5)cc34)cc12 [Example 228, 5-(2-(tetrahydro-2H-pyran-4-yl)-1H-pyrrolo[2,3-b]pyridin-4-yl)-1H-indazol-3-amine]  32 nM
15. Nc1n[nH]c2ccc(-c3ccnc4[nH]c(CO)cc34)cc12 [Example 224]  28 nM
16. Nc1n[nH]c2ccc(-c3ccnc4[nH]c(C(=O)NC5CCCCC5)cc34)cc12 [Example 236, 4-(3-Amino-1H-indazol-5-yl)-N-cyclohexyl-1H-pyrrolo[2,3-b]pyridine-2-carboxamide]  20 nM

same assay, conditions: Life Technologies assay

In order of rising IC50:
1. Nc1nccc(-c2ccc3[nH]nc(N)c3c2)c1C#CCCCO [Example 85, 5-(2-Amino-4-(3-amino-1H-indazol-5-yl)pyridine-3-yl)pent-4-yn-1-ol]  25 nM
2. Nc1nccc(-c2ccc3[nH]nc(N)c3c2)c1C#CCO [Example 83, 3-(2-Amino-4-(3-amino-1H-indazol-5-yl)pyridine-3-yl)prop-2-yn-1-ol]  36 nM
3. CC(C)(O)C#Cc1c(-c2ccc3[nH]nc(N)c3c2)ccnc1N [Example 87, 4-(2-Amino-4-(3-amino-1H-indazol-5-yl)pyridine-3-yl)-2-methylbut-3-yn-2-ol]  36 nM
4. Nc1nccc(-c2ccc3[nH]nc(N)c3c2)c1C#CC1CCCC1 [Example 73, 5-(2-Amino-3-(cyclopentylethynyl)pyridine-4-yl)-1H-indazol-3-amine]  206 nM
5. Nc1nccc(-c2ccc3[nH]nc(N)c3c2)c1C#CCCN1CCCCC1 [Example 93, 5-(2-Amino-3-(4-(piperidin-1-yl)but-1-yn-1-yl)pyridin-4-yl)-1H-indazol-3-amine]  254 nM
6. Nc1nccc(-c2ccc3[nH]nc(N)c3c2)c1C#CCCC(=O)N1CCOCC1 [Example 99, 5-(2-Amino-4-(3-amino-1H-indazol-5-yl)pyridine-3-yl)-1-morpholinopent-4-yn-1-one]  264 nM
7. CC(C)(C)OCC#Cc1c(-c2ccc3[nH]nc(N)c3c2)ccnc1N [Example 88, 5-(2-Amino-3-(3-(tert-butoxy)prop-1-yn-1-yl)pyridine-4-yl)-1H-indazol-3-amine]  442 nM
8. CC(C)(O)C#Cc1cc(-c2ccnc(N)c2)cc2c(N)n[nH]c12 [Example 140, 4-(3-Amino-5-(2-aminopyridin-4-yl)-1H-indazol-7-yl)-2-methylbut-3-yn-2-ol]  3090 nM
